Measurements as given in ChEMBL document CHEMBL4431318, “Design, synthesis and biological evaluation of novel 5-fluoro-1H-benzimidazole-4-carboxamide derivatives as potent PARP-1 inhibitors” (Bioorg Med Chem Lett, 2016).

Key:
[1] = target: T1, Poly [ADP-ribose] polymerase 1 (Homo sapiens, UniProt P09874); details: A549
Description: Inhibition of PARP1 in human A549 cells assessed as potentiation of TMZ-mediated cytotoxicity at 0.5 uM by SRB assay

HCT-116 [2] = assay: Cytotoxicity against human HCT116 cells by SRB assay; assay type: functional, cell-based
HCT-116 [3] = assay: Potency index, ratio of IC50 for veliparib to IC50 for test compound against human HCT116 cells; assay type: functional
[4] = target: T1, Poly [ADP-ribose] polymerase 1; assay: Inhibition of PARP1 (unknown origin)

T1 sequence (P09874 whole entry): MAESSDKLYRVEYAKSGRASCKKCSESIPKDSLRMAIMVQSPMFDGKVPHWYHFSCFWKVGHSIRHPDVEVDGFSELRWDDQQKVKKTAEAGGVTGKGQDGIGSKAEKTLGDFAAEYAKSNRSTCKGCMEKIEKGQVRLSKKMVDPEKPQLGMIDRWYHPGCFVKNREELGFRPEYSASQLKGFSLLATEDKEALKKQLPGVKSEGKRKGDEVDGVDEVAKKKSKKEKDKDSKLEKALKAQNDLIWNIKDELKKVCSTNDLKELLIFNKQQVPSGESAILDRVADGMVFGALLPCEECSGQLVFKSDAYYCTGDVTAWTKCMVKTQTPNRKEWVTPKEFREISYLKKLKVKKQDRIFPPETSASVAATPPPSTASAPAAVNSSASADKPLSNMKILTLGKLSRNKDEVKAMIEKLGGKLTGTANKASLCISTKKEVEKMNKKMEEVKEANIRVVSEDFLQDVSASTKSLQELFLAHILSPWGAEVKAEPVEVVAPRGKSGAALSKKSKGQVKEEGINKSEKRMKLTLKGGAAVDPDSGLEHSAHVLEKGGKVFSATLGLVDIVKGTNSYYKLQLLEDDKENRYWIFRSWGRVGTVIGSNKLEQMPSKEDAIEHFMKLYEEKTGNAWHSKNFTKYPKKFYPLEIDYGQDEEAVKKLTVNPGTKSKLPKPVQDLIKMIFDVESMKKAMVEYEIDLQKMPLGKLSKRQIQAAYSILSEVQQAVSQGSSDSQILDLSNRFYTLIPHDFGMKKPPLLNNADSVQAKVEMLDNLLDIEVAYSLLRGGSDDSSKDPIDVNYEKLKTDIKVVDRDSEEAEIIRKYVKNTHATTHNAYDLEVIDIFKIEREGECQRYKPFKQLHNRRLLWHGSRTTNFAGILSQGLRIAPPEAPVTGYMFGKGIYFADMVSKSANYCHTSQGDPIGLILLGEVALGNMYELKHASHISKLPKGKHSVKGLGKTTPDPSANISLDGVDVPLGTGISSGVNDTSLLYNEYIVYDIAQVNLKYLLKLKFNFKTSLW

Compound	PF50 [1]	IC50 (HCT-116 [2]; hct-116) [nM]	Ratio IC50 (HCT-116 [3])	IC50 (HCT-116 [2]; Homo sapiens, HCT-116) [nM]	IC50 [4] [nM]
C[C@]1(c2nc3c(C(N)=O)cccc3[nH]2)CCCN1 [VELIPARIB]	2.2	64000	–	–	–
NC(=O)c1c(F)ccc2[nH]c(-c3ccc(N4CCOCC4)cc3)nc12	–	–	2.3	27000	21.8
CCCN1CCC(c2nc3c(C(N)=O)c(F)ccc3[nH]2)CC1	–	–	–	65500	29.8
CN1CCC[C@@]1(C)c1nc2c(C(N)=O)c(F)ccc2[nH]1	–	–	–	> 100000	21.7
C[C@]1(c2nc3c(C(N)=O)c(F)ccc3[nH]2)CCCN1	–	–	–	> 100000	5.7
NC(=O)c1c(F)ccc2[nH]c(C3CCCNC3)nc12 (configuration not stated)	–	–	–	–	25.8
NC(=O)c1c(F)ccc2[nH]c(-c3ccc(N4CCNCC4)cc3)nc12	–	–	8.6	7400	43.7
NC(=O)c1c(F)ccc2[nH]c(C3CCNCC3)nc12	–	–	–	> 100000	39.1
